Data as given in ChEMBL document CHEMBL1201862, “PubChem BioAssay data set” (2004).
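Cultured in 96-well plates, cells were exposed to test compound for 48 hours across five concentrations. GI50 is the concentration that inhibits growth by half.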 Activity calls are given as the source filed them. Rule as the data show it: active = GI50 up to about 1.1 µM and inactive = higher.

How the values were obtained:
Experiment in all cases: inhibition of tumour cell growth, NCI panel, 48 h
LXFL 529 = tested on: LXFL 529
KM-20L2 = tested on: KM-20L2
M19-MEL = tested on: M19-MEL
DMS-273 = tested on: DMS-273
DLD-1 = tested on: DLD-1
DMS-114 = tested on: DMS-114
SNB-78 = tested on: SNB-78
RXF 631 = tested on: RXF 631
HOP-18 = tested on: HOP-18

SMILES: O=C1C2Cc3ccccc3CN2C(=O)N1CN1CCCCC1 (centres undefined)
- GI50 (LXFL 529): > 100 µM (inactive)
- GI50 (KM-20L2): > 100 µM (inactive)
- GI50 (M19-MEL): > 100 µM (inactive)
- GI50 (DMS-273): 50.8 µM (inactive)
- GI50 (DLD-1): > 100 µM (inactive)
- GI50 (DMS-114): > 100 µM (inactive)

SMILES: COC(=O)C1CCC(=O)N1/C(C)=N/NC(=O)Nc1ccc(Cl)c(Cl)c1 (centres undefined)
- GI50 (LXFL 529): 28 µM (inactive)
- GI50 (KM-20L2): 32.2 µM (inactive)
- GI50 (M19-MEL): > 100 µM (inactive)
- GI50 (DMS-273): > 100 µM (inactive)
- GI50 (DLD-1): > 100 µM (inactive)
- GI50 (DMS-114): > 100 µM (inactive)
- GI50 (SNB-78): > 100 µM (inactive)

SMILES: O=C(CC1(O)C(=O)Nc2ccccc21)c1ccccc1O (centres undefined)
- GI50 (LXFL 529): > 100 µM (inactive)
- GI50 (KM-20L2): > 100 µM (inactive)
- GI50 (M19-MEL): > 100 µM (inactive)
- GI50 (DMS-273): > 100 µM (inactive)
- GI50 (DLD-1): > 100 µM (inactive)
- GI50 (DMS-114): > 100 µM (inactive)
- GI50 (SNB-78): > 100 µM (inactive)
- GI50 (RXF 631): > 100 µM (inactive)

SMILES: COc1ccc(C)cc1-c1cc(Sc2ccccc2)c(-c2cc(C)ccc2OC)o1
- GI50 (LXFL 529): > 31.6 µM (inactive)
- GI50 (KM-20L2): > 31.6 µM (inactive)
- GI50 (HOP-18): > 31.6 µM (inactive)
- GI50 (M19-MEL): > 31.6 µM (inactive)
- GI50 (DMS-273): > 31.6 µM (inactive)
- GI50 (DLD-1): > 31.6 µM (inactive)
- GI50 (DMS-114): > 31.6 µM (inactive)
- GI50 (SNB-78): > 31.6 µM (inactive)
- GI50 (RXF 631): > 31.6 µM (inactive)

SMILES: N#C/C(=C\c1cccc(O)c1O)C(N)=O
- GI50 (LXFL 529): 50.6 µM (inactive)
- GI50 (KM-20L2): 52.5 µM (inactive)
- GI50 (M19-MEL): 54.8 µM (inactive)
- GI50 (DMS-273): 57.3 µM (inactive)
- GI50 (DLD-1): 45.4 µM (inactive)
- GI50 (DMS-114): 29.9 µM (inactive)
- GI50 (SNB-78): 52 µM (inactive)
- GI50 (RXF 631): 48.8 µM (inactive)

SMILES: O=C(OCc1ccccc1)N1N=NC2C1C1CC(OCc3ccccc3)(OCc3ccccc3)C2O1 (centres undefined)
- GI50 (LXFL 529): > 100 µM (inactive)
- GI50 (KM-20L2): > 100 µM (inactive)
- GI50 (HOP-18): > 100 µM (inactive)
- GI50 (M19-MEL): > 100 µM (inactive)
- GI50 (DMS-273): > 100 µM (inactive)
- GI50 (DLD-1): > 100 µM (inactive)
- GI50 (SNB-78): > 100 µM (inactive)

SMILES: Cc1nc2c(n1C(C)(C)C)C(=O)c1ccccc1C2=O
- GI50 (LXFL 529): 67.9 µM (inactive)
- GI50 (KM-20L2): 51.5 µM (inactive)
- GI50 (M19-MEL): 24.8 µM (inactive)
- GI50 (DMS-273): 52.8 µM (inactive)
- GI50 (DLD-1): 87.3 µM (inactive)
- GI50 (SNB-78): > 100 µM (inactive)

SMILES: COc1cc2cccc(/N=C/c3c(Br)ccc(OC)c3OC(C)C)c2cc1OC
- GI50 (LXFL 529): 26.8 µM (inactive)
- GI50 (KM-20L2): > 100 µM (inactive)
- GI50 (M19-MEL): 30.1 µM (inactive)
- GI50 (DLD-1): 23.8 µM (inactive)
- GI50 (DMS-114): 25.6 µM (inactive)
- GI50 (SNB-78): 38.6 µM (inactive)

SMILES: CC1(Sc2ccccc2)CN(Cc2ccccc2)C1=O (centres undefined)
- GI50 (KM-20L2): > 100 µM (inactive)
- GI50 (HOP-18): > 100 µM (inactive)
- GI50 (M19-MEL): > 100 µM (inactive)
- GI50 (DMS-273): > 100 µM (inactive)
- GI50 (DLD-1): > 100 µM (inactive)
- GI50 (DMS-114): 45.6 µM (inactive)
- GI50 (SNB-78): > 100 µM (inactive)
- GI50 (RXF 631): > 100 µM (inactive)

SMILES: O=C1c2nc3n(c2C(=O)c2c1nc1n2CCC1)CCC3
- GI50 (LXFL 529): 9.93 µM (inactive)
- GI50 (KM-20L2): 3.61 µM (inactive)
- GI50 (HOP-18): 14 µM (inactive)
- GI50 (M19-MEL): 0.184 µM (active)
- GI50 (DMS-273): 3.3 µM (inactive)
- GI50 (DLD-1): 5.09 µM (inactive)
- GI50 (DMS-114): 2.04 µM (inactive)
- GI50 (SNB-78): 13.8 µM (inactive)

SMILES: NC(=O)C12CC3CC(CC(Br)(C3)C1)C2
- GI50 (LXFL 529): > 100 µM (inactive)
- GI50 (KM-20L2): > 100 µM (inactive)
- GI50 (HOP-18): > 100 µM (inactive)
- GI50 (DMS-273): > 100 µM (inactive)
- GI50 (DLD-1): > 100 µM (inactive)
- GI50 (DMS-114): > 100 µM (inactive)
- GI50 (SNB-78): > 100 µM (inactive)
- GI50 (RXF 631): > 100 µM (inactive)

SMILES: CC(C)(C)c1cc2c(OP(c3ccccc3)c3ccccc3)c(c1)Cc1cc(C(C)(C)C)cc(c1OP(c1ccccc1)c1ccccc1)Cc1cc(C(C)(C)C)cc(c1OP(c1ccccc1)c1ccccc1)Cc1cc(C(C)(C)C)cc(c1OP(c1ccccc1)c1ccccc1)C2
- GI50 (LXFL 529): > 5 µM (inactive)
- GI50 (KM-20L2): > 5 µM (inactive)
- GI50 (HOP-18): > 5 µM (inactive)
- GI50 (M19-MEL): > 5 µM (inactive)
- GI50 (DMS-273): > 5 µM (inactive)
- GI50 (DLD-1): > 5 µM (inactive)
- GI50 (DMS-114): > 5 µM (inactive)
- GI50 (SNB-78): > 5 µM (inactive)

SMILES: CC1=CC(C)(c2c[nH]c3ccccc23)CC(C)(C)c2c1[nH]c1ccccc21 (centres undefined)
- GI50 (LXFL 529): 30.1 µM (inactive)
- GI50 (KM-20L2): 14.8 µM (inactive)
- GI50 (HOP-18): > 100 µM (inactive)
- GI50 (M19-MEL): 19.7 µM (inactive)
- GI50 (DLD-1): 13.7 µM (inactive)
- GI50 (DMS-114): 14.9 µM (inactive)
- GI50 (SNB-78): 28.2 µM (inactive)
- GI50 (RXF 631): 14.5 µM (inactive)

SMILES: O=c1[nH]c(-c2ccc(-c3nc4cc([N+](=O)[O-])ccc4c(=O)[nH]3)cc2)nc2cc([N+](=O)[O-])ccc12
- GI50 (LXFL 529): > 100 µM (inactive)
- GI50 (KM-20L2): > 100 µM (inactive)
- GI50 (M19-MEL): > 100 µM (inactive)
- GI50 (DMS-273): > 100 µM (inactive)
- GI50 (DLD-1): > 100 µM (inactive)
- GI50 (DMS-114): > 100 µM (inactive)
- GI50 (SNB-78): > 100 µM (inactive)
- GI50 (RXF 631): > 100 µM (inactive)

SMILES: Cc1cc(N(CCC#N)CCC#N)ccc1/C=N\c1ccc(C(=O)NN2C(=O)/C(=C/c3ccc(N(CCC#N)CCC#N)cc3)N=C2c2cc([N+](=O)[O-])ccc2Cl)cc1
- GI50 (LXFL 529): 71.6 µM (inactive)
- GI50 (KM-20L2): 67.1 µM (inactive)
- GI50 (HOP-18): 5.4 µM (inactive)
- GI50 (M19-MEL): > 100 µM (inactive)
- GI50 (DMS-273): 47.6 µM (inactive)
- GI50 (DLD-1): 78.9 µM (inactive)
- GI50 (DMS-114): > 100 µM (inactive)
- GI50 (SNB-78): > 100 µM (inactive)
- GI50 (RXF 631): > 100 µM (inactive)

SMILES: O=C(O)c1ccccc1C(=O)c1ccco1
- GI50 (KM-20L2): > 100 µM (inactive)
- GI50 (HOP-18): > 100 µM (inactive)
- GI50 (M19-MEL): > 100 µM (inactive)
- GI50 (DMS-273): > 100 µM (inactive)
- GI50 (DLD-1): > 100 µM (inactive)
- GI50 (DMS-114): > 100 µM (inactive)
- GI50 (SNB-78): > 100 µM (inactive)

SMILES: O=C1c2ccccc2C(=O)c2c1ccc1c3ccccc3n(Cc3ccccc3)c21
- GI50 (LXFL 529): > 100 µM (inactive)
- GI50 (HOP-18): 0.0319 µM (active)
- GI50 (M19-MEL): 88.7 µM (inactive)
- GI50 (DLD-1): > 100 µM (inactive)
- GI50 (DMS-114): > 100 µM (inactive)

SMILES: COc1ccc(/C=C(\NC(=O)c2ccccc2)c2nc3ccccc3[nH]2)cc1
- GI50 (LXFL 529): 27.4 µM (inactive)
- GI50 (KM-20L2): 38.5 µM (inactive)
- GI50 (M19-MEL): 35.6 µM (inactive)
- GI50 (DMS-273): 29.5 µM (inactive)
- GI50 (DLD-1): 33.6 µM (inactive)
- GI50 (DMS-114): 24.8 µM (inactive)

SMILES: C[C@]12CC/C(=N\OC(=O)Nc3ccccc3)C=C1CC[C@@H]1C2CC[C@@]2(C)C1CC[C@@H]2OC(=O)Nc1ccccc1 (some centres undefined)
- GI50 (LXFL 529): 15.5 µM (inactive)
- GI50 (KM-20L2): > 100 µM (inactive)
- GI50 (HOP-18): > 100 µM (inactive)
- GI50 (M19-MEL): 66.4 µM (inactive)
- GI50 (DMS-273): > 100 µM (inactive)
- GI50 (DMS-114): 23.2 µM (inactive)
- GI50 (SNB-78): > 100 µM (inactive)
